Values quoted from earlier work as cited in patent publication US20220225611A1, “NON-NATURAL INSECT PHEROMONE BLEND COMPOSITIONS” (Provivi, Inc., priority 2019, published 2022).

Tests used:
C. suppressalis = conditions: Chen et al. (2018)
S. incertulas = conditions: Cork & Souza (1996)

| Structure (SMILES) | effect on attractiveness of a pheromone mixture (C. suppressalis) | effect of presence in a pheromone blend on mating disruption (S. incertulas) |
| --- | --- | --- |
| CCCCCCCC/C=C\CCCCCCCC=O [Z9-18Ald, (Z)-9-Octadecenal] | reduces the attractiveness | – |
| CCCC/C=C\CCCCCCCCCCCC=O [Z13-18Ald, (Z)-13-Octadecenal] | – | not be produce increased mating disruption |
